# Data published in patent publication US20230285497A1, “ATOPIC […] WITH KAPPA OPIOID RECEPTOR AGONIST AS ADJUNCT TO TOPICAL CORTICOSTEROID” (Cara Therapeutics, Inc., priority 2022, published 2023).
# Columns and labels:
# Solubility in water = type: physicochemical; details: acetate salt
# [1] = test system: subjects with atopic dermatitis; experiment: Phase 2 study, tolerability and Treatment Emergent Adverse Events; type: in vivo, human
# Experimental: Oral Difelikefalin 0.25 mg, 0.5 mg, 1.0 mg, or placebo was administered twice daily (BID) in subjects with atopic dermatitis (baseline validated Investigator's Global Assessment scale for AD: vIGA-ADTM≥2 and body surface area [BSA]≤30%) and moderate-to-severe AD-related pruritus (mean baseline Itch Numerical Rating Scale [I-NRS, 0-10 scale] score ≥5.0). The primary and key secondary endpoints were the change from baseline in the weekly mean of the daily I-NRS score at Week 12, and the proportion of subjects achieving at least a 4-point improvement from baseline in I-NRS score at Week 12, respectively.
# There were no deaths in the study. Abdominal pain was the most common TEAE leading to study drug discontinuation in the 1.0 mg dose group (6.5%), compared to placebo (1.6%), 0.25 mg (0%) and 0.5 mg (0%) dose groups.
Structure (SMILES),solubility in water (Solubility in water),abdominal pain TEAE leading to study drug discontinuation ([1]; 0.25 mg dose group) [%],abdominal pain TEAE leading to study drug discontinuation ([1]; 0.5 mg dose group) [%],abdominal pain TEAE leading to study drug discontinuation ([1]; 1.0 mg dose group) [%],deaths in the study ([1]; in vivo),severity of the majority of reported TEAEs ([1]; in vivo),"overall tolerability ([1]; oral, twice daily, 12-week Treatment Period)",most common Treatment Emergent Adverse Events (TEAEs) ([1]; ≥5% in any dose group)
"CC(=O)O.CC(C)C[C@@H](NC(=O)[C@@H](Cc1ccccc1)NC(=O)[C@H](N)Cc1ccccc1)C(=O)N[C@H](CCCCN)C(=O)N1CCC(N)(C(=O)O)CC1 [Difelikefalin acetate, 4-amino-1-(D-phenylalanyl-D-phenylalanyl-D-leucyl-D-lysyl)piperidine-4-carboxylic acid, acetate salt]",soluble in water,–,–,–,–,–,–,–
CC(C)C[C@@H](NC(=O)[C@@H](Cc1ccccc1)NC(=O)[C@H](N)Cc1ccccc1)C(=O)N[C@H](CCCCN)C(=O)N1CCC(N)(C(=O)O)CC1 [Difelikefalin],–,0,0,6.5,no deaths,mild or moderate,generally well-tolerated,"abdominal pain, nausea, dry mouth, headache, dizziness and hypertension"
